Assay results: patent US11253498B2, “Pharmaceutical composition for treatment of bone-related disease” (Nexyon Biotech Co., Ltd., priority 2017, dated 2022)

Legend:
preosteoblast cells [1] = assay: Differentiation into osteoblasts, alizarin red S staining, cholesterol sulphate with or without Formula 2 (Example 2-2); format: cell-based, mice; conditions: FIG. 8
Description: The calvarium was removed from 1- to 3-day-old mice, and then subjected to enzymatic treatment with 1 mg/ml collagenase and 2 mg/ml dispase, to obtain preosteoblast cells. […] Then, differentiation into osteoblasts was induced. Replacement of the medium for differentiation was performed at 2- to 3-day intervals and differentiation was induced for a total of 14 to 21 days. Alizarin red S staining was used to evaluate the differentiation into osteoblasts, thereby quantitatively evaluate the degree of mineralized nodule production. The differentiated cells were fixed in 10% neutral formalin at 4° C. for 20 minutes, and then stained with 1.36% alizarin red solution (pH 4.1 to 4.3) for 40 minutes. The stained pattern was photographed or scanned. […] The degree of differentiation into osteoblasts is illustrated in FIG. 8.

[2] = system: ovary-extracted mouse model; assay: Drug administration in ovary-extracted mouse model, femur micro-CT (Example 2-1); format: in vivo, C57BL/6 female mice; conditions: 5 mg/kg oral, once a day, five days a week, 4 weeks; vs OVX group receiving vehicle only; FIG. 7
From the text: Twenty-four 8-week-old C57BL/6 female mice were randomly divided into three groups, that is, control group (sham), ovary-extracted group (OVX), and OVX+Formula 2 group obtained by administering the compound of Formula 2 to the ovary-extracted group, each group consisting of 8 mice. All three groups were anesthetized using zoletil and rompun. Then, the OVX and OVX+Formula 2 groups were subjected to ovary extraction, and then sutured. The control group was subjected to ovary exposure, and then sutured without ovarian removal. Osteoporosis was induced for 4 weeks.
Starting from 4 weeks after ovarian extraction, on five days a week and once a day, the control group and the OVX group orally received 200 μl of vehicle (tetrahydrofuran:PEG-400:water=1:6:3 in volume), and the OVX+Formula 2 group orally received 200 μl obtained by mixing 5 mg/kg of compound of Formula 2 with a vehicle.
After oral administration for 4 weeks, all mice were sacrificed and the femur was extracted therefrom. The extracted femur was fixed in 10% neutral formalin. Photographs were taken at 7.1 μm voxel size using Skyscan 1173 micro-CT machine, and then bone density was analyzed by CTAn program. The results are illustrated in FIG. 7.

preosteoblast cells [3] = assay: Osteoblast mineralized nodules, alizarin red staining (Example 1-2); format: cell-based, mice; conditions: vs negative control (0 μM); for amount of pigments colored in the nodules (differentiation of preosteoblast cells): alizarin red staining, 21 days, 0 to 50 μM, FIG. 1; for effect on the differentiation into osteoblasts (quantified, absorbance 570 nm): concentration series, FIG. 2 and FIG. 3
Description: In order to isolate preosteoblast cells, the calvarium was removed from 1- to 3-day-old mice, and then preosteoblast cells were obtained via a process in which the calvarium was subjected to treatment with 1 mg/ml collagenase and 2 mg/ml dispase.
Here, the medium for differentiation induction was replaced with fresh medium at 2- to 3-day intervals, and differentiation induction was performed for a total of 21 days. In order to identify the differentiation into osteoblasts, alizarin red staining was performed. Differentiation-induced cells were fixed by being incubated with 10% neutral formalin at 4° C. for 20 minutes, and then stained by being incubated with 1.36% alizarin red solution (pH 4.1 to 4.3) for 40 minutes. The results are illustrated in FIG. 1.
The results obtained by performing quantification with tauroursodeoxycholic acid, deoxycholic acid, or taurocholic acid are illustrated in FIG. 3.

Row | Compound | amount of pigments colored in the nodules (differentiation of preosteoblast cells) (preosteoblast cells [3]) | effect on the differentiation into osteoblasts (quantified, absorbance 570 nm) (preosteoblast cells [3]) | further results
1 | CC(C)CCC[C@@H](C)[C@H]1CC[C@H]2[C@@H]3CC=C4C[C@@H](OS(=O)(=O)O)CC[C@]4(C)[C@H]3CC[C@]12C [Formula 1, [(3S,8S,9S,10R,13R,14S,17R)-10,13-dimethyl-17-[(2R)-6-methylheptan-2-yl]-2,3,4,7,8,9,11,12,14,15,16,17-dodecahydro-1H-cyclopenta[a]phenanthren-3-yl] hydrogen sulphate] |  |  | differentiation into osteoblasts (preosteoblast cells [1]; 0 to 50 μM cholesterol sulphate alone): increases the differentiation into osteoblasts in a dose-dependent manner
2 | NS(=O)(=O)Oc1ccc2c3c(c(=O)oc2c1)CCCCC3 [Formula 2, 6-oxo-6,7,8,9,10,11-hexahydrocyclohepta[c]chromen-3-yl sulfamate] |  |  | increase in the volume of trabecular bone [2]: 90%; differentiation into osteoblasts (preosteoblast cells [1]; 5 μM compound of Formula 2 alone): does not increase; differentiation into osteoblasts (preosteoblast cells [1]; 5 μM compound of Formula 2 in combination with 0 to 50 μM cholesterol sulphate): further enhances an effect of cholesterol sulphate
3 | C[C@H](CCC(=O)O)[C@H]1CC[C@H]2[C@@H]3CC[C@@H]4C[C@H](O)CC[C@]4(C)[C@H]3C[C@H](O)[C@]12C [deoxycholic acid] | no effect |  | 
4 | C[C@H](CCC(=O)NCCS(=O)(=O)O)[C@H]1CC[C@H]2[C@@H]3[C@H](O)C[C@@H]4C[C@H](O)CC[C@]4(C)[C@H]3C[C@H](O)[C@]12C [taurocholic acid] | no effect | no significant difference | 
5 | C[C@H](CCC(=O)NCCS(=O)(=O)O)[C@H]1CC[C@H]2[C@@H]3[C@@H](O)C[C@@H]4C[C@H](O)CC[C@]4(C)[C@H]3CC[C@]12C [tauroursodeoxycholic acid] | no effect | no significant difference | 
